Laboratory results from ChEMBL document CHEMBL5233281, “Design, synthesis and biological evaluation of novel 1,3,4,9-tetrahydropyrano[3,4-b]indoles as potential treatment of triple negative breast cancer by suppressing PI3K/AKT/mTOR pathway” (Bioorg Med Chem, 2021).
Calls of active or inactive are those of the source. The calls are words filed in the database; no cut-off is given here.

Tests used:
MDA-MB-231 [1] = assay: Downregulation of mTOR protein expression in human MDA-MB-231 cells at 2 uM incubated for 72 hrs in presence of IGF-1 by western blot analysis; format: functional, cell-based
MDA-MB-231 [2] = assay: Antiproliferative activity against human MDA-MB-231 cells assessed as inhibition of cell growth at 1 to 4 uM by CCK8 assay; format: functional, cell-based; conditions: dose 1-4 µM, time 24-96 hrs, TDE = time-dependent effect
MDA-MB-231 [3] = assay: Induction of cell cycle arrest in human MDA-MB-231 cells assessed as accumulation of cells at G0/G1 phase at 4 uM incubated for 48 hrs by PI staining based flow cytometry (reference value: 48.33%); format: functional
MDA-MB-231 [4] = assay: Downregulation of PI3K protein expression in human MDA-MB-231 cells incubated for 48 hrs by western blot analysis; format: functional, cell-based; conditions: dose 1-4 µM
PC-3 = assay: Antiproliferative activity against human PC-3 cells assessed as inhibition of cell growth incubated for 72 hrs by CCK8 assay; format: functional, cell-based; conditions: PC-3, 72 h
MDA-MB-231 [5] = assay: Induction of apoptosis in human MDA-MB-231 cells assessed as increase in apoptotic cells at 2 uM incubated for 72 hrs by AnnexinV-FITC/PI staining based flow cytometry (reference value: 5.24%); format: functional
[6] = Inhibition of PI3K/Akt/mTOR signaling in human MDA-MB-231 cells assessed as reduction in Akt phosphorylation at Ser473 residue incubated for 48 hrs by western blot analysis; format: cell-based; conditions: dose 1-4 µM
MDA-MB-231 [7] = assay: Antiproliferative activity against human MDA-MB-231 cells assessed as inhibition of cell growth incubated for 72 hrs by CCK8 assay; format: functional, cell-based; conditions: MDA-MB-231, 72 h
[8] = Inhibition of PI3K/Akt/mTOR signaling in human MDA-MB-231 cells assessed as reduction in mTOR phosphorylation at Ser2448 residue at 2 uM incubated for 72 hrs by western blot analysis; format: cell-based
MDA-MB-231 [9] = assay: Induction of reactive oxygen species generation in human MDA-MB-231 cells at 2 uM incubated for 24 hrs by DCFH-DA staining based flow cytometry relative to control; format: functional
MDA-MB-231 [10] = assay: Induction of cell cycle arrest in human MDA-MB-231 cells assessed as accumulation of cells at G0/G1 phase at 1 uM incubated for 48 hrs by PI staining based flow cytometry (reference value: 48.33%); format: functional
MCF7 = assay: Antiproliferative activity against human MCF7 cells assessed as inhibition of cell growth incubated for 72 hrs by CCK8 assay; format: functional, cell-based; conditions: MCF7, 72 h
MDA-MB-231 [11] = assay: Antiproliferative activity against human MDA-MB-231 cells assessed as inhibition of cell growth measured after 24 to 96 hrs by CCK8 assay; format: functional, cell-based; conditions: dose 1-4 µM, time 24-96 hrs
MDA-MB-231 [12] = assay: Induction of reactive oxygen species generation in human MDA-MB-231 cells at 4 uM incubated for 24 hrs by DCFH-DA staining based flow cytometry; format: functional, cell-based
[13] = Inhibition of PI3K/Akt/mTOR signaling in human MDA-MB-231 cells assessed as reduction in mTOR phosphorylation at Ser2448 residue incubated for 48 hrs by western blot analysis; format: cell-based; conditions: dose 1-4 µM
[14] = Antiproliferative activity against human MCF-10A cells assessed as inhibition of cell growth incubated for 72 hrs by CCK8 assay; format: toxicity, cell-based
MDA-MB-231 [15] = assay: Induction of reactive oxygen species generation in human MDA-MB-231 cells at 1 uM incubated for 24 hrs by DCFH-DA staining based flow cytometry; format: functional, cell-based
MDA-MB-231 [16] = assay: Induction of apoptosis in human MDA-MB-231 cells assessed as increase in apoptotic cells at 2 uM incubated for 72 hrs in presence of IGF-1 by AnnexinV-FITC/PI staining based flow cytometry; format: functional
MDA-MB-231 [17] = assay: Induction of mitochondrial membrane potential depolarization in human MDA-MB-231 cells assessed as decrease in ratio of red to green fluorescence intensity at 1 to 4 uM incubated for 24 hrs by JC-1 staining based flow cytometry; format: functional, cell-based; conditions: dose 1-4 µM
[18] = Inhibition of PI3K/Akt/mTOR signaling in human MDA-MB-231 cells assessed as reduction in Akt phosphorylation at Thr308 residue at 2 uM incubated for 72 hrs in presence of IGF-1 by western blot analysis; format: cell-based
MDA-MB-231 [19] = assay: Induction of cell cycle arrest in human MDA-MB-231 cells assessed as upregulation of p21 protein expression at 1 to 4 uM incubated for 48 hrs by western blot analysis; format: functional, cell-based; conditions: dose 1-4 µM
MDA-MB-231 [20] = assay: Increase in intracellular Ca2+ level in human MDA-MB-231 cells at 1 to 4 uM incubated for 48 hrs by Fluo-4AM dye based flow cytometry; format: functional, cell-based; conditions: dose 1-4 µM
[21] = Inhibition of PI3K/Akt/mTOR signaling in human MDA-MB-231 cells assessed as reduction in Akt phosphorylation at Thr308 residue incubated for 48 hrs by western blot analysis; format: cell-based; conditions: dose 1-4 µM
A549 = assay: Antiproliferative activity against human A549 cells assessed as inhibition of cell growth incubated for 72 hrs by CCK8 assay; format: functional, cell-based; conditions: A549, 72 h
[22] = Selectivity index, ratio of IC50 for antiproliferative activity against human MCF-10A cells to IC50 for antiproliferative activity against human MDA-MB-231 cells; format: toxicity, cell-based; conditions: MCF-10A cells and MDA-MB-231 cells, read-out: Ratio IC50
MDA-MB-231 [23] = assay: Induction of cell cycle arrest in human MDA-MB-231 cells assessed as accumulation of cells at G0/G1 phase at 2 uM incubated for 48 hrs by PI staining based flow cytometry (reference value: 48.33%); format: functional
MDA-MB-231 [24] = assay: Depletion of intracellular GSH content in human MDA-MB-231 cells at 2 uM incubated for 48 hrs relative to control; format: functional
MDA-MB-231 [25] = assay: Downregulation of PI3K protein expression in human MDA-MB-231 cells at 2 uM incubated for 72 hrs in presence of IGF-1 by western blot analysis; format: functional, cell-based
MDA-MB-231 [26] = assay: Induction of cell cycle arrest in human MDA-MB-231 cells assessed as downregulation of CDK4 protein expression at 1 to 4 uM incubated for 48 hrs by western blot analysis; format: functional, cell-based; conditions: dose 1-4 µM
MDA-MB-231 [27] = assay: Induction of apoptosis in human MDA-MB-231 cells assessed as increase in apoptotic cells at 2 uM incubated for 24 hrs by AnnexinV-FITC/PI staining based flow cytometry (reference value: 5.24%); format: functional
MDA-MB-231 [28] = assay: Induction of apoptosis in human MDA-MB-231 cells assessed as increase in cleaved caspase-3 protein expression at 1 to 4 uM incubated for 48 hrs by western blot analysis; format: functional, cell-based; conditions: dose 1-4 µM
BGC-823 = assay: Antiproliferative activity against human BGC-823 cells assessed as inhibition of cell growth incubated for 72 hrs by CCK8 assay; format: functional, cell-based; conditions: BGC-823, 72 h
MDA-MB-231 [29] = assay: Induction of apoptosis in human MDA-MB-231 cells assessed as increase in Bax protein expression measured after 48 hrs by western blot analysis; format: functional, cell-based; conditions: dose 1-4 µM
[30] = Inhibition of PI3K/Akt/mTOR signaling in human MDA-MB-231 cells assessed as reduction in Akt phosphorylation at Ser473 residue at 2 uM incubated for 72 hrs in presence of IGF-1 by western blot analysis; format: cell-based
[31] = Inhibition of PI3K/Akt/mTOR signaling in human MDA-MB-231 cells assessed as reduction in mTOR phosphorylation at Ser2481 residue at 2 uM incubated for 72 hrs by western blot analysis; format: cell-based

With Fc1cc(F)cc(C2OCCc3c2[nH]c2ccccc32)c1 (stereo not given) the inhibition (MDA-MB-231 [1]) was “inactive”, the Activity (MDA-MB-231 [2]) was “Tde” and the Activity (MDA-MB-231 [3]) was 66.67%. The inhibition (MDA-MB-231 [4]) was “Dose-Dependent Effect”, the IC50 (PC-3) was 9.04 µM and the Activity (MDA-MB-231 [5]) was 31.34%. The inhibition [6] was “Dose-Dependent Effect”, the IC50 (MDA-MB-231 [7]) was 2.29 µM and the inhibition [8] was “inactive”. For the same compound, the “fold change (FC)” value (MDA-MB-231 [9]) was 1.73, the Activity (MDA-MB-231 [10]) was 54.33% and the IC50 (MCF7) was 7.89 µM. The Activity (MDA-MB-231 [11]) was “Dose-Dependent Effect”, the Activity (MDA-MB-231 [12]) was “Active” and the inhibition [13] was “Dose-Dependent Effect”. For the same compound, the IC50 at 72 h [14] was 24.6 µM, the Activity (MDA-MB-231 [15]) was “inactive” and the Activity (MDA-MB-231 [16]) was 18.5%. The Activity (MDA-MB-231 [17]) was “Active”, the inhibition [18] was “inactive” and the Activity (MDA-MB-231 [19]) was “Active”. For the same compound, the Activity (MDA-MB-231 [20]) was “Active”, the inhibition [21] was “Dose-Dependent Effect” and the IC50 (A549) was 14.8 µM. For the same compound, the selectivity ratio [22] was 10.8, the Activity (MDA-MB-231 [23]) was 64% and the “fold change (FC)” value (MDA-MB-231 [24]) was 0.63. For the same compound, the inhibition (MDA-MB-231 [25]) was “inactive”, the Activity (MDA-MB-231 [26]) was “Active” and the Activity (MDA-MB-231 [27]) was 13.14%. For the same compound, the Activity (MDA-MB-231 [28]) was “Active”, the IC50 (BGC-823) was 9.11 µM and the Activity (MDA-MB-231 [29]) was “Dose-Dependent Effect”. For the same compound, the inhibition [30] was “inactive” and the inhibition [31] was “inactive”.
